molecular target: GluN2B containing NMDAR (GluN1/GluN2B) in HEK-293 cells (Homo sapiens, UniProt Q05586+Q13224); test: Cell-based NMDAR activity assay; settings: not given
Sequence (Q13224 27-1484, species assumed, other chains not shown): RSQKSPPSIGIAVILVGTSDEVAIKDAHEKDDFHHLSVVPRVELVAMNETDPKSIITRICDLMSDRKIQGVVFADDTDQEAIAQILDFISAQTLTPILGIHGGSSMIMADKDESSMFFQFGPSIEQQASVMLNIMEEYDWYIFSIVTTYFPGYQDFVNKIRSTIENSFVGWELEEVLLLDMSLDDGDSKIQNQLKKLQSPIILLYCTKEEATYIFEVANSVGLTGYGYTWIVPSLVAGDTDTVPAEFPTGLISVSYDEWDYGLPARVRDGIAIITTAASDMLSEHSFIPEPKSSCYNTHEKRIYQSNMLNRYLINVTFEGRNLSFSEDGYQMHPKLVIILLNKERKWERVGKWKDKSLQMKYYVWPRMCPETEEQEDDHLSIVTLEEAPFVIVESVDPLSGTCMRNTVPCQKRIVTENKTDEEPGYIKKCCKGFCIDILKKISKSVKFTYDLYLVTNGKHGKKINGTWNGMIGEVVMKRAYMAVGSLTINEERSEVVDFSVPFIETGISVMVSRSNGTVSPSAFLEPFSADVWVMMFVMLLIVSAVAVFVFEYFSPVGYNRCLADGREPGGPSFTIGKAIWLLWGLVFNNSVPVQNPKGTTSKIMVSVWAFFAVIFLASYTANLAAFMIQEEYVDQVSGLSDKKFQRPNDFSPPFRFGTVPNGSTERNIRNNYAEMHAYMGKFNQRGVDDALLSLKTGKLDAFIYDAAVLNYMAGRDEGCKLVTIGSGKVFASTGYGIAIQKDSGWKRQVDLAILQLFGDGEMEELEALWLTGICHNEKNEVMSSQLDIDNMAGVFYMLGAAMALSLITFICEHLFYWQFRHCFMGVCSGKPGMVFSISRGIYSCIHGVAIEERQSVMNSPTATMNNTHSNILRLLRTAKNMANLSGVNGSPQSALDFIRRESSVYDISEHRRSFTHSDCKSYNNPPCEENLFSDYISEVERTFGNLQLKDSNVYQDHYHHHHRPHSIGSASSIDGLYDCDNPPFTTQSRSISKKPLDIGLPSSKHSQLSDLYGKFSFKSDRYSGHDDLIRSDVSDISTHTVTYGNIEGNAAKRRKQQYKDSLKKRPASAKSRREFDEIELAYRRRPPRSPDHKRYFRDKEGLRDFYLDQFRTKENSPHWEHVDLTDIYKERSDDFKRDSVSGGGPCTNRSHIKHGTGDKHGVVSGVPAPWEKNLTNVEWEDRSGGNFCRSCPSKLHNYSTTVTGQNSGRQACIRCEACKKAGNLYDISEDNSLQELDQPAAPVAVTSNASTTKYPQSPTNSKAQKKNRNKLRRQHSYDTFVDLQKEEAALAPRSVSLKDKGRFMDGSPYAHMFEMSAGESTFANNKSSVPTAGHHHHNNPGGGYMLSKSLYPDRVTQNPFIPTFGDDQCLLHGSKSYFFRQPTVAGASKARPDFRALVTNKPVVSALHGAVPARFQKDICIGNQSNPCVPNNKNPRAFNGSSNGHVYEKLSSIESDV

SMILES | IC50 | fold higher NMDAR inhibitory potency compared to reported value for tacrine | fold increase in NMDAR potency compared to 107
Nc1c2c(nc3cc(-c4cc[nH]n4)ccc13)CCCC2 [Compound 204, 6-(1H-pyrazol-3-yl)-1,2,3,4-tetrahydroacridin-9-amine] | 14600 ± 4320 nM | – | –
N#Cc1ccc(-c2ccc3c(N)c4c(nc3c2)CCCC4)cc1 [Compound 205, 4-(9-amino-5,6,7,8-tetrahydroacridin-3-yl)benzonitrile] | 2840 ± 460 nM | – | –
Nc1c2c(nc3cc(-c4ccc(OC(F)(F)F)cc4)ccc13)CCCC2 [Compound 206, 6-(4-(trifluoromethoxy)phenyl)-1,2,3,4-tetrahydroacridin-9-amine] | 9190 ± 2680 nM | – | –
Nc1c2c(nc3cc(-c4ccccc4F)ccc13)CCCC2 [Compound 208, 6-(2-fluorophenyl)-1,2,3,4-tetrahydroacridin-9-amine] | 310 ± 90 nM | ~600 fold | –
Nc1c2c(nc3cc(-c4ccc(F)cc4)ccc13)CCCC2 [Compound 209, 6-(4-fluorophenyl)-1,2,3,4-tetrahydroacridin-9-amine] | 3360 ± 860 nM | – | About 4 fold
CSc1ccc(-c2ccc3c(N)c4c(nc3c2)CCCC4)cc1 [Compound 210, 6-(4-(methylthio)phenyl)-1,2,3,4-tetrahydroacridin-9-amine] | 270 ± 50 nM | ~600 fold | –

same assay, conditions: 5 μM, with NMDAR agonists and Ca2+ (Fig. 2B)

SMILES | number of punctate cells
Nc1c2c(nc3cc(-c4ccccc4F)ccc13)CCCC2 [Compound 208, 6-(2-fluorophenyl)-1,2,3,4-tetrahydroacridin-9-amine] | Reduction in the number of punctate cells

same assay, conditions: HEK293, read-out: inhibition of NMDAR activity

SMILES | inhibition at 100 µM | inhibition at 50 µM
Nc1c2c(nc3cc(-c4cc[nH]n4)ccc13)CCCC2 [Compound 204, 6-(1H-pyrazol-3-yl)-1,2,3,4-tetrahydroacridin-9-amine] | ~100% | –
N#Cc1ccc(-c2ccc3c(N)c4c(nc3c2)CCCC4)cc1 [Compound 205, 4-(9-amino-5,6,7,8-tetrahydroacridin-3-yl)benzonitrile] | ~100% | –
Nc1c2c(nc3cc(-c4ccc(OC(F)(F)F)cc4)ccc13)CCCC2 [Compound 206, 6-(4-(trifluoromethoxy)phenyl)-1,2,3,4-tetrahydroacridin-9-amine] | ~100% | –
Nc1c2c(nc3cc(-c4ccccc4F)ccc13)CCCC2 [Compound 208, 6-(2-fluorophenyl)-1,2,3,4-tetrahydroacridin-9-amine] | ~100% | ~100%
Nc1c2c(nc3cc(-c4ccc(F)cc4)ccc13)CCCC2 [Compound 209, 6-(4-fluorophenyl)-1,2,3,4-tetrahydroacridin-9-amine] | ~100% | ~100%
CSc1ccc(-c2ccc3c(N)c4c(nc3c2)CCCC4)cc1 [Compound 210, 6-(4-(methylthio)phenyl)-1,2,3,4-tetrahydroacridin-9-amine] | ~100% | ~100%

same assay, conditions: based on NMDAR IC50

SMILES | category of NMDAR inhibitor
Nc1c2c(nc3cc(-c4ccccc4F)ccc13)CCCC2 [Compound 208, 6-(2-fluorophenyl)-1,2,3,4-tetrahydroacridin-9-amine] | potent (potent (IC50 < 5 μM))
CSc1ccc(-c2ccc3c(N)c4c(nc3c2)CCCC4)cc1 [Compound 210, 6-(4-(methylthio)phenyl)-1,2,3,4-tetrahydroacridin-9-amine] | potent (potent (IC50 < 5 μM))

same assay, conditions: initial screening studies

SMILES | antagonism of NMDAR activity, in words
Nc1c2c(nc3cc(-c4cc[nH]n4)ccc13)CCCC2 [Compound 204, 6-(1H-pyrazol-3-yl)-1,2,3,4-tetrahydroacridin-9-amine] | effective in antagonizing NMDAR activity
N#Cc1ccc(-c2ccc3c(N)c4c(nc3c2)CCCC4)cc1 [Compound 205, 4-(9-amino-5,6,7,8-tetrahydroacridin-3-yl)benzonitrile] | effective in antagonizing NMDAR activity
Nc1c2c(nc3cc(-c4ccc(OC(F)(F)F)cc4)ccc13)CCCC2 [Compound 206, 6-(4-(trifluoromethoxy)phenyl)-1,2,3,4-tetrahydroacridin-9-amine] | effective in antagonizing NMDAR activity
Nc1c2c(nc3cc(-c4ccccc4F)ccc13)CCCC2 [Compound 208, 6-(2-fluorophenyl)-1,2,3,4-tetrahydroacridin-9-amine] | effective in antagonizing NMDAR activity
Nc1c2c(nc3cc(-c4ccc(F)cc4)ccc13)CCCC2 [Compound 209, 6-(4-fluorophenyl)-1,2,3,4-tetrahydroacridin-9-amine] | effective in antagonizing NMDAR activity
CSc1ccc(-c2ccc3c(N)c4c(nc3c2)CCCC4)cc1 [Compound 210, 6-(4-(methylthio)phenyl)-1,2,3,4-tetrahydroacridin-9-amine] | effective in antagonizing NMDAR activity

tested on: HepG2 cells; test: MTT cytotoxicity assay on HepG2 cells; settings: 10-300 μM, 24 h

SMILES | cytotoxicity on HepG2 cells, in words
Nc1c2c(nc3cc(-c4cc[nH]n4)ccc13)CCCC2 [Compound 204, 6-(1H-pyrazol-3-yl)-1,2,3,4-tetrahydroacridin-9-amine] | non-toxic
N#Cc1ccc(-c2ccc3c(N)c4c(nc3c2)CCCC4)cc1 [Compound 205, 4-(9-amino-5,6,7,8-tetrahydroacridin-3-yl)benzonitrile] | slight toxicity
Nc1c2c(nc3cc(-c4ccc(F)cc4)ccc13)CCCC2 [Compound 209, 6-(4-fluorophenyl)-1,2,3,4-tetrahydroacridin-9-amine] | non-toxic

tested on: rat primary cortical neurons; test: Glutamate-induced excitotoxicity, MTT assay; assay type: cell-based; settings: DIV9 neurons, glutamate 3 h, MTT after 24 h; pre-treatment with compounds

SMILES | reduction in neuronal viability by glutamate (MTT assay)
Nc1c2c(nc3cc(-c4ccccc4F)ccc13)CCCC2 [Compound 208, 6-(2-fluorophenyl)-1,2,3,4-tetrahydroacridin-9-amine] | averted
CSc1ccc(-c2ccc3c(N)c4c(nc3c2)CCCC4)cc1 [Compound 210, 6-(4-(methylthio)phenyl)-1,2,3,4-tetrahydroacridin-9-amine] | averted

tested on: rat liver; test: In vivo hepatotoxicity assessment by liver histopathology; settings: IP, 15 days

SMILES | animals showing mild periportal inflammation or congestion
Nc1c2c(nc3cc(-c4ccccc4F)ccc13)CCCC2 [Compound 208, 6-(2-fluorophenyl)-1,2,3,4-tetrahydroacridin-9-amine] | 5 out of 6 animals

same assay, conditions: IP, 15 days, 201 3 mg/Kg, 208 1 mg/Kg, tacrine 5 mg/Kg

SMILES | liver histopathology (H&E), in words
Nc1c2c(nc3cc(-c4ccccc4F)ccc13)CCCC2 [Compound 208, 6-(2-fluorophenyl)-1,2,3,4-tetrahydroacridin-9-amine] | mild periportal inflammation or mild congestion

molecular target: BChE from equine serum (Equus caballus, UniProt P81908); test: biochemical; assay type: biochemical; settings: not given
Sequence (P81908 whole entry): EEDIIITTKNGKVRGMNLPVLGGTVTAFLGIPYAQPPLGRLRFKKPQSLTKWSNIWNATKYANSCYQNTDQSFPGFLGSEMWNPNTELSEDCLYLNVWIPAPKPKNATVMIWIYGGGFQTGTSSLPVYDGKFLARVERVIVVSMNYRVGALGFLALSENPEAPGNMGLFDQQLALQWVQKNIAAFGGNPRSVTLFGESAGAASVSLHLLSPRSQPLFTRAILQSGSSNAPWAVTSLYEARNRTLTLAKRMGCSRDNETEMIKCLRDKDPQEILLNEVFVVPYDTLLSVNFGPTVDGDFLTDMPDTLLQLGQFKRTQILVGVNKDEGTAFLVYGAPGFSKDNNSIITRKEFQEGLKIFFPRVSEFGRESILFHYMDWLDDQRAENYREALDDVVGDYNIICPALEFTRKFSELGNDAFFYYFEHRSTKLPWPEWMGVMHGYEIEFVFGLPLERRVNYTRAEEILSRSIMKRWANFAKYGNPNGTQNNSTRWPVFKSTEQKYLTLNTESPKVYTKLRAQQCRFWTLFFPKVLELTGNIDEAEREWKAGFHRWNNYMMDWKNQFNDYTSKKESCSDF

SMILES | IC50
Nc1c2c(nc3cc(-c4cc[nH]n4)ccc13)CCCC2 [Compound 204, 6-(1H-pyrazol-3-yl)-1,2,3,4-tetrahydroacridin-9-amine] | 960 ± 70 nM
N#Cc1ccc(-c2ccc3c(N)c4c(nc3c2)CCCC4)cc1 [Compound 205, 4-(9-amino-5,6,7,8-tetrahydroacridin-3-yl)benzonitrile] | 700 ± 80 nM
Nc1c2c(nc3cc(-c4ccc(OC(F)(F)F)cc4)ccc13)CCCC2 [Compound 206, 6-(4-(trifluoromethoxy)phenyl)-1,2,3,4-tetrahydroacridin-9-amine] | 1210 ± 160 nM
Nc1c2c(nc3cc(-c4ccccc4F)ccc13)CCCC2 [Compound 208, 6-(2-fluorophenyl)-1,2,3,4-tetrahydroacridin-9-amine] | 130 ± 20 nM
Nc1c2c(nc3cc(-c4ccc(F)cc4)ccc13)CCCC2 [Compound 209, 6-(4-fluorophenyl)-1,2,3,4-tetrahydroacridin-9-amine] | 1030 ± 170 nM
CSc1ccc(-c2ccc3c(N)c4c(nc3c2)CCCC4)cc1 [Compound 210, 6-(4-(methylthio)phenyl)-1,2,3,4-tetrahydroacridin-9-amine] | 940 ± 120 nM

same assay, conditions: BChE from equine serum

SMILES | IC50 values (mean ± SD) BChE
Nc1c2c(nc3cc(-c4cc[nH]n4)ccc13)CCCC2 [Compound 204, 6-(1H-pyrazol-3-yl)-1,2,3,4-tetrahydroacridin-9-amine] | submicromolar
N#Cc1ccc(-c2ccc3c(N)c4c(nc3c2)CCCC4)cc1 [Compound 205, 4-(9-amino-5,6,7,8-tetrahydroacridin-3-yl)benzonitrile] | submicromolar
Nc1c2c(nc3cc(-c4ccccc4F)ccc13)CCCC2 [Compound 208, 6-(2-fluorophenyl)-1,2,3,4-tetrahydroacridin-9-amine] | submicromolar
CSc1ccc(-c2ccc3c(N)c4c(nc3c2)CCCC4)cc1 [Compound 210, 6-(4-(methylthio)phenyl)-1,2,3,4-tetrahydroacridin-9-amine] | submicromolar

molecular target: AChE from Electrophorus electricus (electric eel) (Electrophorus electricus, UniProt O42275); test: In vitro AChE inhibition assay; assay type: biochemical; settings: not given
Sequence (O42275 24-633): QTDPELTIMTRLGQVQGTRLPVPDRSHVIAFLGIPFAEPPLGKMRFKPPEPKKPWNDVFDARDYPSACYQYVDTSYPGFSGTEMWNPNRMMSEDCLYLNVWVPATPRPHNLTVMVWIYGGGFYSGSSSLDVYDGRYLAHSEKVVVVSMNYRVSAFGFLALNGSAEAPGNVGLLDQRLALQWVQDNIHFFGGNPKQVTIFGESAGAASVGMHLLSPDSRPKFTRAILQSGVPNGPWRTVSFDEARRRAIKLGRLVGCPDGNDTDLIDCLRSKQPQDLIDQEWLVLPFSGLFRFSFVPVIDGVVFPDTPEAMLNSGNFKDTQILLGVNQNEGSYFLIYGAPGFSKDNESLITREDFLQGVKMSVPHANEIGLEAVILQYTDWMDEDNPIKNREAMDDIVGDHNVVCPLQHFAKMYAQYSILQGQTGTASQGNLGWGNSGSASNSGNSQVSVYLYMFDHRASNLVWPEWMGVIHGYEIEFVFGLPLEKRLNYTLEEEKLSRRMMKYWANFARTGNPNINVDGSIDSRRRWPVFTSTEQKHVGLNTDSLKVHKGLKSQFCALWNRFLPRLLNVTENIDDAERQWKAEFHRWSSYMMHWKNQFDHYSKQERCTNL

SMILES | IC50
Nc1c2c(nc3cc(-c4cc[nH]n4)ccc13)CCCC2 [Compound 204, 6-(1H-pyrazol-3-yl)-1,2,3,4-tetrahydroacridin-9-amine] | 137 ± 7.35 nM
N#Cc1ccc(-c2ccc3c(N)c4c(nc3c2)CCCC4)cc1 [Compound 205, 4-(9-amino-5,6,7,8-tetrahydroacridin-3-yl)benzonitrile] | 84.2 ± 1.8 nM
Nc1c2c(nc3cc(-c4ccc(OC(F)(F)F)cc4)ccc13)CCCC2 [Compound 206, 6-(4-(trifluoromethoxy)phenyl)-1,2,3,4-tetrahydroacridin-9-amine] | 184 ± 19.2 nM
Nc1c2c(nc3cc(-c4ccccc4F)ccc13)CCCC2 [Compound 208, 6-(2-fluorophenyl)-1,2,3,4-tetrahydroacridin-9-amine] | 75.1 ± 9.46 nM
Nc1c2c(nc3cc(-c4ccc(F)cc4)ccc13)CCCC2 [Compound 209, 6-(4-fluorophenyl)-1,2,3,4-tetrahydroacridin-9-amine] | 76 ± 3.79 nM
CSc1ccc(-c2ccc3c(N)c4c(nc3c2)CCCC4)cc1 [Compound 210, 6-(4-(methylthio)phenyl)-1,2,3,4-tetrahydroacridin-9-amine] | 149 ± 16.8 nM

same assay, conditions: AChE from electric eel vs BChE from equine serum

SMILES | selectivity between AChE and BChE, in words
Nc1c2c(nc3cc(-c4ccccc4F)ccc13)CCCC2 [Compound 208, 6-(2-fluorophenyl)-1,2,3,4-tetrahydroacridin-9-amine] | comparable inhibitory potency towards both AChE and BChE

tested on: rat primary cortical neurons; test: Glutamate-induced excitotoxicity, MAP2 immunostaining and DAPI staining; assay type: cell-based; settings: DIV9 neurons, 100 µM glutamate and 10 µM glycine

SMILES | condensed nuclei / viable cells (DAPI staining) after glutamate | decrease in MAP2 positive cells and loss of neuronal architecture caused by glutamate
Nc1c2c(nc3cc(-c4ccccc4F)ccc13)CCCC2 [Compound 208, 6-(2-fluorophenyl)-1,2,3,4-tetrahydroacridin-9-amine] | clear decrease in the number of condensed nuclei | prevented
CSc1ccc(-c2ccc3c(N)c4c(nc3c2)CCCC4)cc1 [Compound 210, 6-(4-(methylthio)phenyl)-1,2,3,4-tetrahydroacridin-9-amine] | clear decrease in the number of condensed nuclei | prevented
